Where two headings read alike, the source gives them in different places.
What was measured:
[1] = cited from earlier work
CYP3A4 [2] = biological target: T1, CYP3A4 (Homo sapiens, UniProt P08684); settings: cited from earlier work
[3] = cited from earlier work; remark: listed apart in the source
CYP3A4 [4] = settings: cited from earlier work
Caco-2 = test system: Caco-2; set-up: method as in earlier work; settings: enzalutamide PBPK model input; cited from earlier work
CYP3A4 [5] = biological target: T1, CYP3A4
Source text: (§1) The physiochemical and ADME parameters used for the development of the initial PBPK model are summarized Table S1. […] The volume of distribution at steady state (Vss) was obtained from the clinical absolute bioavailability study (ClinicalTrials.gov Identifier: NCT02390492). A tissue to plasma partition coefficient (Kp) scalar was applied to match the predicted Vss (predicted with in Simcyp using Method 3, Rodgers et al. + ion membrane permeability) to the observed value. The IV clearance determined in the clinical absolute bioavailability study was used (ClinicalTrials.gov Identifier: NCT02390492). […] The CYP3A4 inhibition parameters for competitive inhibition and TDI determined using in vitro assays (Data on file) were incorporated into the model.
(§2) The age range of 37–76 and the proportion of females of 0.69 were used in the simulation.

CYP3A4 [6] = biological target: T1, CYP3A4; test: Clinical study: ipatasertib 300 mg QD with palbociclib (NCT04060862); settings: in vivo
CYP3A4 [7] = test: In vitro CYP3A4 induction; type: in vitro ADME
Source text: (§3) This is due to the difficulty in differentiating between the inhibition and induction from the clinical data and that the PBPK model parameters were optimized to represent a net inhibition effect.

CYP3A4 [8] = biological target: T1, CYP3A4; settings: ipatasertib 100 mg single oral dose with and without itraconazole 200 mg QD, cited from earlier work
clinical = settings: human, in vivo, po, 200 mg
[9] = Human mass balance and absolute bioavailability study (NCT02390492)
[10] = cited from earlier work; remark: listed apart in the source
[11] = test system: MDCK (Madin-Darby Canine Kidney); test: MDCK permeability
Source text: as §1

MDCK permeability = settings: dog, MDCK
Source text: as §1

P-glycoprotein (P-gp) = P-glycoprotein (P-gp) (Homo sapiens, UniProt P08183); test: In vitro P-glycoprotein substrate assessment; type: in vitro ADME
Source text: as §3

[12] = Blood-to-plasma partition ratio and fraction unbound in plasma; type: in vitro ADME; settings: mean at concentration from 0.1 to 40 µM, data on file, read-out: fu,plasma
[13] = Biliary excretion of unchanged ipatasertib; type: in vivo; settings: rats and monkeys dosed with 10 mg/kg and 5 mg/kg
Source text: as §3

[14] = Solubility of ipatasertib; type: physicochemical; settings: across the pH range of 1.1–7.0
Source text: as §1

[15] = male, human, in vivo, iv
[16] = cited from earlier work; for Observed AUC0-∞ / Observed AUC0-24: geometric mean (CV%); for Observed AUC0-24: Steady state
[17] = Physicochemical parameters (LogP, pKa, compound type; in-house data)
Source text: as §1

CYP3A4 [18] = biological target: T1, CYP3A4; settings: cited from earlier work; for AUC ratio Observation: midazolam AUC0–∞ with/without ipatasertib 600 mg QD; for AUC ratio Observation / Cmax ratio Observation: geometric mean ratio (90% CI); for Cmax ratio Observation: midazolam Cmax with/without ipatasertib 600 mg QD
CYP3A4 [19] = biological target: T1, CYP3A4; test: PBPK simulation: midazolam with ipatasertib 600 mg QD
Protocol: as §2
Therefore, sensitivity analyses of inhibitory parameters, where only one parameter (Ki or Kinact) varied at a time, were performed for all three models described above.

CYP3A4 [20] = biological target: T1, CYP3A4; test: clinical; settings: female, in vivo, 125 mg
[21] = palbociclib PBPK model input; cited from earlier work
[22] = enzalutamide 160 mg QD with ipatasertib, clinical observation, geometric mean (CV%)

T1 sequence (P08684 whole entry): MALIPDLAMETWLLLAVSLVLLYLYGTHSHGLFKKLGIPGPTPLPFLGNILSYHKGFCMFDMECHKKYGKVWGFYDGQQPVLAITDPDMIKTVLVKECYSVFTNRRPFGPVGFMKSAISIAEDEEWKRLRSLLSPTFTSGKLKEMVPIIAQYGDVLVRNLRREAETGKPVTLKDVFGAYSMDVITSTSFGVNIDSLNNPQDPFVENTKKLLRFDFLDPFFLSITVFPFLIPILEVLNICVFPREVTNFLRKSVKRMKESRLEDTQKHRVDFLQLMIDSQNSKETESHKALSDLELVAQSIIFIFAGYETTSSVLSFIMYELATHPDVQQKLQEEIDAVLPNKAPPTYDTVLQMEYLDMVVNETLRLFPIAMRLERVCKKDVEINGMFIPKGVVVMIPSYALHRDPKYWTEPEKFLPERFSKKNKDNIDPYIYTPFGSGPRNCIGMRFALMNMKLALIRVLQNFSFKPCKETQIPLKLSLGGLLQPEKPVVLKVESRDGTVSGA
Sequence of P-glycoprotein (P-gp) (P08183 whole entry): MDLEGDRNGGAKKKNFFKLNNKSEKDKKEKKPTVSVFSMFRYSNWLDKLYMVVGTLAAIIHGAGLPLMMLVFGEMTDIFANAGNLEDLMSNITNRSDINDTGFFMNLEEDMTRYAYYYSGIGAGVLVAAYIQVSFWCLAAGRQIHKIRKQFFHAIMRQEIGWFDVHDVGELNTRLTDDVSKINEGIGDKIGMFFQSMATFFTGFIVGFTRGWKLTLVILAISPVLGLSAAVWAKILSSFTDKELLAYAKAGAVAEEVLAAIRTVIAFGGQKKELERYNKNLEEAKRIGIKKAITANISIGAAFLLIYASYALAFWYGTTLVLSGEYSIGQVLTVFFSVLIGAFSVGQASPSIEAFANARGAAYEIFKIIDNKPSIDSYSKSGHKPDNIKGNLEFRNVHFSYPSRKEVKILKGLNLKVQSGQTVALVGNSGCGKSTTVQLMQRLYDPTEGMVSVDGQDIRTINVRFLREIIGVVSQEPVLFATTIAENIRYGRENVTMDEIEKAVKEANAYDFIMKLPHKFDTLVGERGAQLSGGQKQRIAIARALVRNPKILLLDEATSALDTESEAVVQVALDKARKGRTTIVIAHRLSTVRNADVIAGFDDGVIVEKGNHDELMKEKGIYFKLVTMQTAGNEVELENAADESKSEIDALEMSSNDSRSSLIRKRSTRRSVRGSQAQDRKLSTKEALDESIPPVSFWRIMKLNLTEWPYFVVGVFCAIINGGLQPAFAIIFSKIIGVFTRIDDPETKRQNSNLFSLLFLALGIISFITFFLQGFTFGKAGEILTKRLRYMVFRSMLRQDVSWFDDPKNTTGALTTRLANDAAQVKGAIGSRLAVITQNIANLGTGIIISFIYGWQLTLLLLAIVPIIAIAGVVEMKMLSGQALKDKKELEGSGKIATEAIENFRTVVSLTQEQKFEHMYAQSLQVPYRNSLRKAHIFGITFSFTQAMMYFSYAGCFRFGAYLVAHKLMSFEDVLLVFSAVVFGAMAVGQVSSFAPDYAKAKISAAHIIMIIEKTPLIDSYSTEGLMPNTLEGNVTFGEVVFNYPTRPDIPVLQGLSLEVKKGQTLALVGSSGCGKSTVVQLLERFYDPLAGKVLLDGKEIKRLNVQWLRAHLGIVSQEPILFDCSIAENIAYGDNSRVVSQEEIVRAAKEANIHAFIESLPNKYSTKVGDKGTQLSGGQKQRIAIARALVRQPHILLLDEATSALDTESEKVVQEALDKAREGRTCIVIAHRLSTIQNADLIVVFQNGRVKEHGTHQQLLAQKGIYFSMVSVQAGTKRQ

Structure (SMILES): CNC(=O)c1ccc(N2C(=S)N(c3ccc(C#N)c(C(F)(F)F)c3)C(=O)C2(C)C)cc1F [Enzalutamide]
- fu, plasma ([1]; enzalutamide PBPK model input): 0.024
- Observed AUCss (CYP3A4 [2]; [22]): 341 (25%) µg*hr/ml
- Observed Cmax (CYP3A4 [2]; [22]): 17 (22%) µg/ml
- CLpo ([3]; enzalutamide, in vivo clearance): 0.54 L/h
- Ind max (CYP3A4 induction) (CYP3A4 [4]; enzalutamide PBPK model input): 8
- EC50 (CYP3A4 [4]; enzalutamide PBPK model input, read-out: Ind C50 (CYP3A4 induction)): 2.5 µM
- Ki (CYP3A4 [4]; enzalutamide PBPK model input, read-out: Ki (CYP3A4 competitive inhibition)): 42 µM
- Caco-2 permeability (Caco-2): 31 10^-6 cm/s

Structure (SMILES): CC(C)NC[C@@H](C(=O)N1CCN(c2ncnc3c2[C@H](C)C[C@H]3O)CC1)c1ccc(Cl)cc1 [Ipatasertib]
- CYP3A4 substrate/inhibitor status (CYP3A4 [5]): a substrate and a competitive and time-dependent inhibitor (TDI) of CYP3A4
- Kapp (CYP3A4 time-dependent inhibition) (CYP3A4 [5]): 9.66 µM
- AUC (CYP3A4 [6]): 2510 ng·h/mL
- Cmax (CYP3A4 [6]): 314 ng/mL
- Tmax (CYP3A4 [6]): 1.5 h
- observed decrease in ipatasertib Cmax (CYP3A4 [2]; in the presence of enzalutamide, patients with prostate cancer): ~53%
- AUC Observation (CYP3A4 [2]; ipatasertib AUC0–24 h, ipatasertib 400 mg QD with and without enzalutamide 160 mg QD, geometric mean (CV%)): 2170 (53.8%) ng* h/ml
- Cmax Observation (CYP3A4 [2]; ipatasertib Cmax, ipatasertib 400 mg QD with and without enzalutamide 160 mg QD, patients with prostate cancer, geometric mean (CV%)): 284 (66.5%) ng/ml
- Tmax Observation (CYP3A4 [2]; ipatasertib Tmax, ipatasertib 400 mg QD with and without enzalutamide 160 mg QD, median (range)): 1.85 (0.63–4.00) h
- CYP3A4 induction in vitro (CYP3A4 [7]): weak CYP3A4 inducer in vitro
- AUC Observation (CYP3A4 [8]; ipatasertib AUC0–∞, geometric mean (CV%)): 327 (26.4%) ng* h/ml
- Cmax Observation (CYP3A4 [8]; ipatasertib Cmax, geometric mean (CV%)): 44.9 (35.9%) ng/ml
- Tmax Observation (CYP3A4 [8]; ipatasertib Tmax, median (range)): 1.07 (0.50–3.03) h
- CL renal (clinical): 322 mL/min
- Vd ([9]; human, in vivo, intravenous, 0.08 mg): 39.1 L/kg
- bioavailability ([9]; human, in vivo, oral, 200 mg): 34%
- unchanged drug eliminated in urine ([9]; single 200 mg oral dose): ~8%
- effect of food on exposures [10]: Food does not affect exposures
- permeability (in words) [11]: moderate permeability
- Papp (MDCK permeability): 3.55 ×10⁻⁶ cm/s
- P-gp substrate status (P-glycoprotein (P-gp)): substrate of P-glycoprotein (P-gp)
- fraction unbound [12]: 0.63
- unchanged drug found in bile [13]: 2.9–5.8%
- solubility [14]: > 10000 µg/mL
- CLiv [15]: 100 L/h
- dose proportionality of exposure ([16]; 200 to 800 mg, single dose or multiple doses): approximately dose-proportional
- Observed AUC0-∞ ([16]; Day 1, 25 mg oral (n=3)): 34.0 (107%) ng*hr/ml
- Observed AUC0-∞ ([16]; Day 1, 50 mg oral (n=3)): 84.6 (50.1%) ng*hr/ml
- Observed AUC0-∞ ([16]; Day 1, 100 mg oral (n=3)): 365 (21.5%) ng*hr/ml
- Observed AUC0-∞ ([16]; Day 1, 200 mg oral (n=3)): 999 (21.2%) ng*hr/ml
- Observed AUC0-∞ ([16]; Day 1, 400 mg oral (n=3)): 2230 (14.1%) ng*hr/ml
- Observed AUC0-∞ ([16]; Day 1, 600 mg oral (n=7)): 3460 (36.4%) ng*hr/ml
- Observed AUC0-∞ ([16]; Day 1, 800 mg oral (n=7)): 4100 (68.6%) ng*hr/ml
- Observed AUC0-24 ([16]; 25 mg (n=3)): 88.3 (77.8%) ng*hr/ml
- Observed AUC0-24 ([16]; 50 mg (n=3)): 171 (11%) ng*hr/ml
- Observed AUC0-24 ([16]; 200 mg (n=3)): 1770 (14.6%) ng*hr/ml
- Observed AUC0-24 ([16]; 400 mg (n=3)): 3210 (22.3%) ng*hr/ml
- Observed AUC0-24 ([16]; 600 mg (n=7)): 4450 (43.8%) ng*hr/ml
- Observed AUC0-24 ([16]; 800 mg (n=7)): 6670 (66.1%) ng*hr/ml
- dose proportionality of exposure ([16]; low doses of 25–50 mg): more than dose-proportional increase in exposures
- Compound type [17]: Diprotic base
- logP [17]: 3
- pKa ([17]; read-out: pKa1): 9
- pKa ([17]; read-out: pKa2): 4.9

Structure (SMILES): Cc1ncc2n1-c1ccc(Cl)cc1C(c1ccccc1F)=NC2 [Midazolam]
- Papp (MDCK permeability): 18.8 ×10⁻⁶ cm/s
- AUC ratio Observation (CYP3A4 [18]): 2.22 (1.57–3.12)
- AUC ratio Observation (CYP3A4 [18]; listed as midazolam): 2.22
- AUC Observation (CYP3A4 [18]; midazolam AUC0–∞, midazolam 2 mg single oral dose with and without ipatasertib 600 mg QD, geometric mean (CV%)): 39.3 (58.4%) ng* h/ml
- Cmax ratio Observation (CYP3A4 [18]): 1.29 (0.97–1.71)
- Cmax ratio Observation (CYP3A4 [18]; listed as midazolam): 1.29
- Cmax Observation (CYP3A4 [18]; midazolam Cmax, midazolam 2 mg single oral dose with and without ipatasertib 600 mg QD, geometric mean (CV%)): 15.0 (51.6%) ng/ml
- Tmax Observation (CYP3A4 [18]; midazolam Tmax, midazolam 2 mg single oral dose with and without ipatasertib 600 mg QD, median (range)): 0.50 (0.50–1.00) h
- AUC P/O (CYP3A4 [19]; predicted/observed midazolam AUC0–∞, midazolam 2 mg with and without ipatasertib 600 mg QD): 0.59
- AUC ratio P/O (CYP3A4 [19]; predicted/observed midazolam AUC ratio, ipatasertib 600 mg QD): 1.00
- Cmax ratio P/O (CYP3A4 [19]; predicted/observed midazolam Cmax ratio, ipatasertib 600 mg QD): 1.33

Structure (SMILES): CC(=O)c1c(C)c2cnc(Nc3ccc(N4CCNCC4)cn3)nc2n(C2CCCC2)c1=O [Palbociclib]
- AUC (CYP3A4 [20]): 2560 ng·h/mL
- Cmax (CYP3A4 [20]): 123 ng/mL
- fu, plasma ([1]; palbociclib PBPK model input): 0.147
- CLR ([3]; palbociclib PBPK model input): 6.6 L/h
- Fa ([3]; palbociclib PBPK model input): 0.85
- Ka ([3]; palbociclib PBPK model input): 0.12 h⁻¹
- Vss ([3]; palbociclib PBPK model input): 14.558 L/kg
- Kapp (CYP3A4 time-dependent inhibition) (CYP3A4 [4]; palbociclib PBPK model input): 10 µM
- logP [21]: 0.99

Structure (SMILES): CN/C(=N/CCSCc1nc[nH]c1C)NC#N [cimetidine]
- Papp (MDCK permeability): 1 ×10⁻⁶ cm/s

Structure (SMILES): COCCc1ccc(OCC(O)CNC(C)C)cc1 (stereo not drawn) [metoprolol]
- Papp (MDCK permeability): 24.8 ×10⁻⁶ cm/s

Structure (SMILES): CC(C)NCC(O)COc1cccc2ccccc12 (stereo not drawn) [propranolol]
- Papp (MDCK permeability): 20.9 ×10⁻⁶ cm/s

Source: publication PMC9054915 (Cancer Chemotherapy and Pharmacology, 2022)
